According to US20040053345A1, “Marker for probing the therapeutic efficacy of drugs” (priority 2002, published 2004):
“Also recorded” adds a separate entry of the source.

Columns and labels:
[1] = system: breast cancer; conditions: ER-positive patients, tamoxifen administered for 5 years; cited from earlier work
[2] = system: estrogen receptor (ER) transcription activity; test: Reporter gene assay with ERE-Luc in menin-transfected cells in the presence of tamoxifen; assay type: cell-based, human; conditions: MCF-7 cells co-transfected with menin expression vector and ERE-Luc; 1 μM tamoxifen; 24 hours
Description: The cells were cultured in DMEM (ICN) medium to which 10% fetal calf serum (ICN) was supplemented.
Full-length menin cDNA was amplified by RT-PCR, and inserted into an expression vector, pcDNA3 (Invitrogen). The menin cDNA was identified by sequencing. The mutation (569delC) was introduced with a site-directed mutagenesis kit (Promega) to produce a variant menin.
The menin expression vector and the reporter gene (ERE-Luc) were co-transfected into MCF-7 cells according to the liposome method. Similarly, the menin expression vector, CMV-ERA and the reporter gene (ERE-Luc) were co-transfected. into COS-7 cells according to the liposome method. After culturing for 24 hours, the proteins were extracted from cells and assayed for their luciferase activity. The extracted proteins were measured for their protein concentration and β-galactosidase activity wherein β-galactosidase was co-transfected and the introduction efficiency was calibrated. Similar experiments were carried out with addition of 1 μM tamoxifen to the same system.

[3] = system: breast cancer; test: Menin expression in breast cancer tissues (immunohistological staining) versus recurrence under tamoxifen; assay type: in vivo, human
Description: Thin slices (4 μm) were prepared from breast cancer tissues embedded with paraffin. After removing paraffin, the microwave treatment was carried out (5 min×3) in citrate buffer. After cooling at room temperature, the endogenous peroxidase activity was inhibited using an aqueous 0.3% hydrogen peroxide solution. Next, blocking was performed with 6 drops of 5% bovine albumin (Sigma) for one hour, and then the anti-menin antibody (Santa Cruz) (first antibody capable of immunohistological staining) was reacted overnight (8 hours). After washing, the second antibody and 6 drops of Envision+ (Dako) wherein HRP was conjugated with polymers were reacted for one hour.
After 100 mg of a coloring agent, DAB (Dojindo), was thoroughly mixed in 150 ml of PBS, the slice was immersed in a solution containing 75 μl of 30% hydrogen peroxide (0.5 μl/ml) for 1 min, and immediately immersed into and washed with tap water. After the dehydration treatment, the slice was enclosed with a cover glass, and observed by a microscopy. The specimen where menin-positive cells with brown-colored nuclei were 50% or more of total cells was determined to be menin-positive.

CC/C(=C(\c1ccccc1)c1ccc(OCCN(C)C)cc1)c1ccccc1 [tamoxifen]
recurrence rate relative to that in non-administered patients [1]: 50% | inhibition of luciferase activity (ER transcription activity) [2]: not inhibited; also recorded: no suppressive effect | cancer recurrence ([3]; 5 menin-positive cases, tamoxifen administered in 3 cases): 4 cases | cancer recurrence ([3]; menin-negative patient cases (3 of 10) administered tamoxifen): no recurrence
